Measurements reported in patent publication US12180187B2, “1-phenyl-5-azinylpyrazolyl-3-oxyalkyl acids and their use for controlling unwanted plant growth” (BAYER AKTIENGESELLSCHAFT, priority 2019, dated 2024).

Legend:
SETVI = assay: Post-emergence action against SETVI, 1.28 kg/ha; format: in vivo, Setaria viridis; conditions: dosage 1280 g/ha, visual rating about 3 weeks after treatment vs untreated controls
Procedure, shortened: (§1)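 Percent activity was scored visually ~3 wk post-spray relative to untreated plants. Treatment was post-emergence at the one-leaf stage using WP/EC in water with 0.5% additive (600 L/ha).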

STEME = assay: Post-emergence action against STEME, 1.28 kg/ha; format: in vivo, Stellaria media; conditions: dosage 1280 g/ha, visual rating about 3 weeks after treatment vs untreated controls (100% = plants died)
Procedure, shortened: as §1

VIOTR = assay: Post-emergence action at 320 g/ha against VIOTR; format: in vivo, Viola tricolor; conditions: visual rating about 3 weeks after treatment vs untreated controls
Procedure, shortened: (§2)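 Visual % activity vs untreated controls (0% = like control, 100% = plants dead), scored ~3 wk after treatment. Plants were grown in sandy loam in a greenhouse and sprayed on green parts at the one-leaf stage (2–3 wk post-sowing). Spray: WP or EC in water, 0.5% additive, 600 l/ha.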

LOLRI = assay: Pre-emergence action against LOLRI, 1280 g/ha; format: in vivo, Lolium rigidum; conditions: visual scoring after about 3 weeks vs untreated controls, 100% = plants have died, 0% = like control plants
Procedure, shortened: (§3)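 Visual % scoring, roughly 3 weeks post-application, against untreated controls; 100% means plants died. Treatment went onto the soil covering sown seeds (sandy loam), as aqueous suspension or emulsion plus 0.5% additive.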

VERPE = assay: Pre-emergence action against VERPE, 1280 g/ha; format: in vivo, Veronica persica; conditions: scored visually after about 3 weeks vs untreated controls (100% = plants have died)
Procedure, shortened: as §3

ALOMY = assay: Pre-emergence action against ALOMY, 1280 g/ha; format: in vivo, Alopecurus myosuroides; conditions: visual scoring after about 3 weeks vs untreated controls, 100% = plants have died, 0% = like control plants
Procedure, shortened: as §3

AMARE = assay: Post-emergence action against AMARE, 1.28 kg/ha; format: in vivo, Amaranthus retroflexus; conditions: dosage 1280 g/ha, visual rating about 3 weeks after treatment vs untreated controls (100% = plants died)
Procedure, shortened: as §1

AVEFA = assay: Post-emergence action at 320 g/ha against AVEFA; format: in vivo; conditions: visual rating about 3 weeks after treatment vs untreated controls
Procedure, shortened: as §2

ECHCG = assay: Post-emergence action at 320 g/ha against ECHCG; format: in vivo, Echinochloa crus-galli; conditions: dosage 320 g/ha, visual rating about 3 weeks after treatment vs untreated controls (100% = plants died)
Procedure, shortened: as §2

DIGSA [1] = assay: Pre-emergence action against DIGSA, 1280 g/ha; format: in vivo, Digitaria sanguinalis; conditions: visual scoring after about 3 weeks vs untreated controls, 100% = plants have died, 0% = like control plants
Procedure, shortened: as §3

DIGSA [2] = assay: Post-emergence action at 320 g/ha against DIGSA; format: in vivo, Digitaria sanguinalis; conditions: dosage 320 g/ha, visual rating about 3 weeks after treatment vs untreated controls (100% = plants died)
Procedure, shortened: as §2

PHBPU = assay: Post-emergence action at 320 g/ha against PHBPU; format: in vivo; conditions: visual rating about 3 weeks after treatment vs untreated controls
From the text: Accordingly, the compounds of the invention have good herbicidal action against a broad spectrum of weed grasses and broad-leaved weeds and are therefore suitable for controlling unwanted vegetation by the post-emergence method. • b) Seeds of monocotyledonous and dicotyledonous weeds and crop plants are placed in sandy loam in plastic or organic planting pots, covered with soil and cultivated in a greenhouse under controlled growth conditions. 2 to 3 weeks after sowing, the test plants are treated at the one-leaf stage. The compounds of the invention, formulated in the form of wettable powders (WP) or as emulsion concentrates (EC), are then sprayed onto the green parts of the plants as aqueous suspension or emulsion with addition of 0.5% additive at a water application rate of 600 l/ha (converted). After the test plants have been kept in the greenhouse under optimum growth conditions for about 3 weeks, the activity of the preparations is rated visually in comparison to untreated controls. For example, 100% activity=the plants have died, 0% activity=like control plants. Tables 39 to 49 below show the effects of selected compounds of the general formula (I) according to Tables 1 and 2 on various harmful plants and at an application rate corresponding to 320 g/ha, which were obtained by the experimental procedure mentioned above.

KCHSC = assay: Post-emergence action against KCHSC, 1.28 kg/ha; format: in vivo, Bassia scoparia; conditions: dosage 1280 g/ha, visual rating about 3 weeks after treatment vs untreated controls (100% = plants died)
Procedure, shortened: as §1

Row | Structure (SMILES) | Post-emergence action against SETVI (SETVI) [%] | Post-emergence action against STEME (STEME) [%] | Post-emergence action against VIOTR in % (VIOTR) [%] | Pre-emergence action against LOLRI (LOLRI) [%] | Pre-emergence action against VERPE (VERPE) [%] | Pre-emergence action against ALOMY (ALOMY) [%] | Post-emergence action against AMARE (AMARE) [%] | Post-emergence action against AVEFA in % (AVEFA) [%] | Post-emergence action at 320 g/ha against ECHCG in % (ECHCG) [%] | Pre-emergence action against DIGSA (DIGSA [1]) [%] | Post-emergence action at 320 g/ha against DIGSA in % (DIGSA [2]) [%] | Post-emergence action against PHBPU in % (PHBPU) [%] | Post-emergence action against KCHSC (KCHSC) [%]
1 | COC(=O)CNC(=O)COc1nn(-c2ccccc2F)c(-c2ccc(F)nc2)c1C(F)(F)F [Example X-007] | 100 | 100 | 80 | 100 | 100 | 100 | 90 | 80 | 80 | 100 |  |  | 
2 | COC(=O)C(C)Oc1nn(-c2ccccc2)c(-c2ccc(F)nc2)c1Br (centres unmarked) [VII-014] |  | 90 | 90 | 100 | 90 | 90 | 90 | 90 | 80 | 100 | 80 |  | 
3 | CCOC(=O)COc1nn(-c2ccccc2F)c(-c2ccc(F)nc2)c1I [VII-036] | 90 | 100 | 80 | 100 | 100 | 100 | 100 | 80 | 80 | 100 | 90 | 80 | 
4 | O=C(O)COc1nn(-c2ccccc2F)c(-c2ccc(F)nc2)c1I [VII-037] | 90 | 100 | 80 | 100 | 100 | 100 | 90 | 80 | 80 | 100 | 90 | 80 | 
5 | COCCOC(=O)COc1nn(-c2ccccc2F)c(-c2ccc(F)nc2)c1Br [VII-052] | 90 | 100 | 80 | 100 | 100 | 100 | 90 | 90 |  | 100 | 90 | 80 | 
6 | CCOC(=O)C(C)Oc1nn(-c2ccccc2F)c(-c2ccc(F)nc2)c1I (centres unmarked) [VII-057] | 100 |  | 80 | 100 | 100 | 100 | 100 |  |  | 100 | 90 |  | 90
7 | COC(=O)[C@@H](C)Oc1nn(-c2cc(F)ccc2F)c(-c2ccc(F)nc2)c1Br [VII-062] |  | 100 | 80 | 100 | 100 | 100 |  | 90 | 80 | 100 | 90 | 80 | 90
8 | CCOC(=O)C(C)Oc1nn(-c2ccccc2F)c(-c2ccc(F)nc2)c1C(F)(F)F (centres unmarked) [VII-066] | 90 | 100 | 80 | 100 | 100 | 100 | 90 |  | 80 | 100 | 90 |  | 90
9 | O=C(COc1nn(-c2ccccc2F)c(-c2ccc(F)nc2)c1Br)OCC1CCOC1 (centres unmarked) [VII-091] | 90 | 90 |  | 100 | 100 | 100 | 90 | 80 |  | 100 | 90 |  | 
10 | O=C(COc1nn(-c2ccccc2F)c(-c2ccc(F)nc2)c1Br)OCC1OCCO1 [VII-103] | 90 |  |  | 100 | 100 | 100 | 90 | 80 | 80 | 100 | 90 | 80 | 
11 | COC(=O)[C@H](C)Oc1nn(-c2cc(F)ccc2F)c(-c2ccc(F)nc2)c1Br [VII-107] | 90 | 100 | 80 | 90 | 100 | 90 | 100 |  | 80 | 100 | 90 |  | 
12 | CCOC(=O)COc1nn(-c2ccccc2F)c(-c2ccc(F)nc2)c1C [VII-117] |  |  | 80 | 100 | 100 | 100 | 100 | 90 |  | 100 | 90 |  | 
13 | COC(=O)[C@@H](C)Oc1nn(-c2cc(F)ccc2F)c(-c2cncc(F)c2)c1Br [VII-132] | 90 |  | 80 | 100 | 100 | 100 | 100 | 80 | 80 | 100 | 90 | 90 | 100
14 | COC(=O)[C@@H](C)Oc1nn(-c2cc(F)ccc2F)c(-c2cncc(F)c2)c1C#N [VII-147] | 90 | 100 |  | 100 | 100 | 100 | 100 | 80 | 80 | 100 |  | 90 | 90
